From patent EP4653012A1 (Jiangsu Hengrui Pharmaceuticals Co., Ltd., priority 2023, dated 2024)

Columns and labels:
[1] = Pharmacokinetic study in beagles, intravenous administration, plasma by LC/MS/MS; conditions: 0.5 mg/kg
Experimental: The pharmacokinetic behavior of the compound of the present disclosure in dogs was studied, and its pharmacokinetic profile was evaluated.
Six male beagles were divided into 2 groups of 3, purchased from Shanghai Medicilon Inc., and subjected to an administration test.
The collected blood samples were each placed in EDTA-K2 anticoagulant blood collection tubes, and the collected whole blood was placed on ice and centrifuged within 1 h to isolate the plasma (centrifugal force: 2200 g, centrifugal time: 10 min, 2-8 °C). Plasma samples were stored in a refrigerator at -80 °C prior to testing.
The content of the test compounds in beagle plasma after the injection was determined: 25 µL of beagle plasma at each time point after the administration was mixed with 50 µL (100 ng/mL) of internal standard solution camptothecin (China National Institutes for Food and Drug Control) and 200 µL of acetonitrile. The mixture was vortexed for 5 min and centrifuged for 10 min (3700 rpm), and 3-4 µL of the supernatant of the plasma sample was taken for LC/MS/MS assay (API4000 triple quadrupole tandem mass spectrometer (No. 2), Applied Biosystems, USA; Shimadzu, LC-30AD ultra high performance liquid chromatography system, Shimadzu, Japan).

MDA-MB-468 (HER2-) = assay: In vitro cytotoxic activity screening (CTG assay); assay type: cell-based
Experimental: (§1) In this experiment, the ATP content was determined using CTG to reflect the survival condition of the tumor cells. […] The killing effect of the toxin molecule was then assayed according to this condition.
(§2) According to the purpose of the experiment, two disease models of breast cancer and NSCLC were selected, and three cell strains of SKBR3 tumor cells (HER2+, ATCC, Cat# HTB-30), MDA-MB-468 (HER2-, ATCC, Cat# HTB-132) and A549 (human non-small cell lung cancer cells, ATCC, Cat# CCL-185) were selected for screening.
(§3) The cells were counted, and 4.3 × 10^5, 7.2 × 10^5 and 11.5 × 10^5 cells were each added to a culture solution to give a final volume of 26 mL. 180 µL of cell suspension was added to each well in columns 2 to 11 of a 96-well plate (Corning, Cat# 3903) to give cell densities of 3K, 5K, and 8K per well. Wells in column 12 were each filled with 200 µL of culture solution and the remaining wells were each filled with PBS. The SKBR3 and MDA-MB-468 cells were subjected to the same operations described above. […] 2 mM stock solution (stock solution diluted 10-fold in DMSO) was prepared in column 1 of drug preparation plate 1, and then 10-fold gradient dilution in DMSO was performed through column 10, and the wells in column 11 were filled with DMSO. 95 µL of corresponding culture solution was added into each well from column 2 to column 11 of the drug preparation plate 2, and 5 µL of solution was pipetted from column 2 to column 11 of drug preparation plate 1 to drug preparation plate 2. The solution was mixed well, and 20 µL of solution was pipetted and added into the plated cells. The cells were then cultured for 3 days and 5 days. • 4) CTG assay (Cell Titer-GloTM, luminescent cell viability assay, Promega): the cell plates were taken out on day 3 and day 5 and equilibrated to room temperature. 90 µL of CTG was added into each well, and the mixture was reacted at room temperature for 10 min in the dark. The luminescence value was read using a microplate reader and IC50 was calculated.

[2] = tested on: A549 (human non-small cell lung cancer cells); assay: In vitro cytotoxic activity screening (CTG assay); assay type: cell-based
Experimental: as §1, §2, §3

[3] = tested on: SKBR3 tumor cells (HER2+); assay: In vitro cytotoxic activity screening (CTG assay); assay type: cell-based
Experimental: as §1, §2, §3

C=C1C[C@@H]2CC[C@@]34C[C@H]5O[C@H]6[C@@H](O3)[C@H]3O[C@H](CC[C@@H]3O[C@H]6[C@H]5O4)CC(=O)C[C@@H]3[C@@H](OC)[C@@H](C[C@@H](CN)OC)O[C@H]3C[C@H]3O[C@@H](CC[C@@H]1O2)C[C@@H](C)C3=C [Compound 1]
Plasma concentration C5min ([1]; beagles, intravenous): 82.1 ng/mL
IC50 (MDA-MB-468 (HER2-); Homo sapiens, MDA-MB-468): 0.183 nM
Maximum inhibition rate (MDA-MB-468 (HER2-); MDA-MB-468, CTG): 88.01%
Maximum inhibition rate ([2]; A549, CTG): 81.34%
IC50 ([2]; Homo sapiens, A549): 0.515 nM
IC50 ([3]; Homo sapiens, SK-BR-3): 0.205 nM
Maximum inhibition rate ([3]; SKBR3, CTG): 96.87%

C=C1C[C@@H]2CC[C@@]34C[C@H]5O[C@H]6[C@@H](O3)[C@H]3O[C@H](CC[C@@H]3O[C@H]6[C@H]5O4)CC(=O)C[C@@H]3[C@@H](OC)[C@@H](C[C@H](O)CN)O[C@H]3C[C@H]3O[C@@H](CC[C@@H]1O2)C[C@@H](C)C3=C [Eribulin, eribulin, reference compound]
concentration at 5 min ([1]; male, beagle, dog, in vivo, iv): 217 ng/mL
